Key:
Type in all cases: cell-based
DLD-1 colon cancer cells [1] = assay: Trypan blue surviving cell count, DLD-1
Excerpt: Surviving cells, which had not be stained by trypan blue were counted and the results are shown in Table 3 as relative surviving cells (%).

MMP-1 mRNA expression = assay: RT-PCR of MMP-1 mRNA in HCT116; conditions: HCT116, 1 μM; for inhibition of MMP-1 mRNA expression: 36 hours
Description: Previously, it was shown that the synthetic retinoid derivatives inhibit the transcriptional activity of AP-1. Also, it is well known that MMP (matrix metalloproteinase), a main target gene of AP-1 is involved in metastasis of cancer cells. Therefore, the inhibitive effects of the retinoid derivatives on metastasis of cancer was examined by RT-PCR analysis. Colon cancer HCT116 cells were treated with 1 μM retinoid for 36 hours. RNA was isolated from the cells and mRNA expression levels of MMP-1, -2 and -3 were analyzed by RT-PCR. […] As the control, GAPDH was used and it was confirmed that its expression was not affected by retinoid. Meanwhile, the expression level of MMP-3 was affected weakly by KCBG40, intermediately by KCBG41 but strongly by KCBG10 (FIG. 9).
RNA was isolated from the cells and mRNA expression levels of MMP-1, -2 and -3 were analyzed by RT-PCR (FIG. 14).

RXRβ = target: T1, RXRβ (Homo sapiens, UniProt P28702); assay: CAT reporter assay, RXRβ; conditions: 1 μM, control = 1.0, RA = 9-cis RA; for expression level of CAT enzyme, RXRβ −: column '−'
T1 construct: expressed in transfected cells
T1 sequence (P28702 1-533): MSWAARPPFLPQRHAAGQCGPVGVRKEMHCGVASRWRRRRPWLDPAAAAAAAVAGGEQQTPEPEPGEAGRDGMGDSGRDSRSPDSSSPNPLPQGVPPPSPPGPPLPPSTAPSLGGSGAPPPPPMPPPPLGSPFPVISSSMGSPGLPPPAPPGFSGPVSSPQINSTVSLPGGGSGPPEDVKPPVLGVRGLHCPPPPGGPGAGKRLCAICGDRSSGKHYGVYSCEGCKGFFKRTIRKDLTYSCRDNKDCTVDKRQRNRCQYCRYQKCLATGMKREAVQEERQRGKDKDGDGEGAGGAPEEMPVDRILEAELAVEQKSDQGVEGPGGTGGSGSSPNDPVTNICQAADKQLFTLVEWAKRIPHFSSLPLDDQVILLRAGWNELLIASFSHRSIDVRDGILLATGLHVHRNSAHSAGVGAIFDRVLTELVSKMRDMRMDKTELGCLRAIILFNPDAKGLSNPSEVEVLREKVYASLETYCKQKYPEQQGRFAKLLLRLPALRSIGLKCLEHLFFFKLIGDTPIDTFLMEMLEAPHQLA
Excerpt: As the reporter gene, chloramphenicol acetyltransferase (CAT) with a transcription control site reactive to respective receptors was used.

RARβ = target: T2, RARβ (Homo sapiens, UniProt P10826); assay: CAT reporter assay, RARβ; conditions: 1 μM, control = 1.0; for expression level of CAT enzyme, RARβ −: column '−'
T2 construct: expressed in transfected cells
T2 sequence (P10826 1-455): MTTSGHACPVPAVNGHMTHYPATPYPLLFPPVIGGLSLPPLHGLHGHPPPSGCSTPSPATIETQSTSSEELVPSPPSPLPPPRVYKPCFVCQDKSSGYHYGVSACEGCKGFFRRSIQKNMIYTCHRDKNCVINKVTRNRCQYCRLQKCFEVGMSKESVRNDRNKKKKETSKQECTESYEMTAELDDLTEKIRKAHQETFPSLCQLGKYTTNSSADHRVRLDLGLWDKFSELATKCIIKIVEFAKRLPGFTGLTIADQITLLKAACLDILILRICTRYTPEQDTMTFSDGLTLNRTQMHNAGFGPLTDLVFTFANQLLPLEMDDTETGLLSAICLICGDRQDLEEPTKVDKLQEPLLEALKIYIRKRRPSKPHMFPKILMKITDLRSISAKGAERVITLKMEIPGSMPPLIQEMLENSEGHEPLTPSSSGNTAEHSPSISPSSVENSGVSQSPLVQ
Excerpt: In order to confirm the effect of KCBG60 according to the present invention on retinoid receptor activity, cells were cotransfected with expression vectors of receptor subfamilies and reporter genes. As the reporter gene, chloramphenicol acetyltransferase (CAT) with a transcription control site reactive to respective receptors was used.

[2] = system: CaSki cervix cancer cells; assay: MTT proliferation assay, CaSki; conditions: 48 hours, uterine cancer
Description: (§1) The effects of test compounds on proliferation of various cancer cells was examined by 3-(4,5-dimethylthiazol-2-yl)-2,5-diphenyltetrazolium bromide (MTT, Sigma) assay in a dose dependent manner. In the MTT assay, colon, liver, cervix, ovary, and breast cancer cell lines were treated with test compounds at various concentrations. Living cancer cells reduce MTT to dark blue MTT formazan that would be measured by absorbance.
(§2) Colon cancer cells, HCT116, DLD-1 and HT29, cervix cancer cells, HeLa and CaSki, ovary cancer cells, SKOV-3, 2774 and OVCAR-3, liver cancer cells, SK-Hep-1, PLCPRF5 and HepG2, and breast cancer cells, ZR75-1 and MDA-MB 231 were seeded at an initial density of 3000 cells per well in 96-well plates. After attachment of cells to the walls of the wells, the medium containing fresh retinoid was treated with various concentrations (0.5 μM, 1 μM, 2.5 μM, 5 μM, 10 μM) for 48 hours. 50 μl of MTT solution (2 mg/ml in PBS) was added to cell culture media. The reaction micture was incubated at 37° C. in a 5% CO2 atmosphere for 4 hours. The supernatant was removed and 150 μl of DMSO was added. The optical density was measured spectrophotometrically at 550 nm. […] For other retinoid derivatives according to the present invention, absorbances were measured by this procedure and IC50 values, concentrations required for 50% growth inhibition, were determined.

[3] = system: SK-Hep-1 liver cancer cells; assay: MTT proliferation assay, SK-Hep-1
Description: as §1, §2

DLD-1 colon cancer cells [4] = assay: MTT proliferation assay, DLD-1
Description: as §1, §2

colon cancer cells = assay: MTT proliferation assay, colon cancer cells (Table 1); conditions: 48 hours, concentration required for 50% growth inhibition, read-out: IC50, activities of various retinoid derivatives in colon cancer cells
Description: as §1, §2

HepG2 liver cancer cells = assay: MTT proliferation assay, HepG2
Description: as §1, §2

Molecule | relative surviving cells (%) (DLD-1 colon cancer cells [1]; DLD-1, 0.5 μM) | relative surviving cells (%) (DLD-1 colon cancer cells [1]; DLD-1, 1 μM) | relative surviving cells (%) (DLD-1 colon cancer cells [1]; DLD-1, 5 μM) | relative surviving cells (%) (DLD-1 colon cancer cells [1]; DLD-1, 10 μM) | MMP-1 mRNA reduction compared to ATRA and phenyl butylate (MMP-1 mRNA expression; 24 hours) | reduction of MMP-1 mRNA level (MMP-1 mRNA expression; 24 hours) | expression level of CAT enzyme, RXRβ + (RXRβ) | expression level of CAT enzyme, RXRβ − (RXRβ) | expression level of CAT enzyme, RARβ + (RARβ) | expression level of CAT enzyme, RARβ − (RARβ) | IC50 ([2]; Homo sapiens, Ca-Ski) [µM] | IC50 ([3]; Homo sapiens, SK-HEP1, 48 hours) [µM] | IC50 (DLD-1 colon cancer cells [4]; Homo sapiens, DLD-1, 48 hours) [µM] | IC50 (colon cancer cells) [µM] | IC50 (HepG2 liver cancer cells; Homo sapiens, HepG2, 48 hours) [µM] | IC50 [2] [µM] | IC50 ([3]; 48 hours) [µM] | IC50 (DLD-1 colon cancer cells [4]; 48 hours) [µM] | inhibition of MMP-1 mRNA expression (MMP-1 mRNA expression) | IC50 (HepG2 liver cancer cells; 48 hours) [µM]
CCCC(=O)Oc1ccc(NC(=O)/C=C(C)/C=C/C=C(C)/C=C/C2=C(C)CCCC2(C)C)cc1 [KCBG60] | 95 | 85 | 60 | 30 | two times increased | about 50% | 1.1 | 0.5 | 1.0 | 0.8 | – | – | – | – | – | – | – | – | – | –
CC1=C(/C=C/C(C)=C/C=C/C(C)=C/C(=O)O)C(C)(C)CCC1 [ATRA, All-trans-retinoic acid, reference compound] | – | – | – | – | – | – | – | – | 65.2 | 17.3 | 20 | > 500 | 20 | 20 | > 500 | – | – | – | – | –
phenyl butylate | 105 | 103 | 102 | 92 | – | – | 1.1 | 0.5 | 0.9 | 0.7 | – | – | – | – | – | – | – | – | – | –
CCCC(=O)Nc1cc(NC(=O)/C=C(C)/C=C/C=C(C)/C=C/C2=C(C)CCCC2(C)C)ccc1O [KCBG41, (2E,4E,6E,8E)-[3,7-dimethyl-9-(2,6,6-trimethylcyclohex-1-enyl)-nona-2,4,6,8-tetraenoylamino]-(3-butyrylamino-4-hydroxy)phenylamide] | – | – | – | – | – | – | – | – | – | – | – | – | – | 0.3 | – | 3 | 0.8 | 1.5 | strongly | > 100
CC1=C(/C=C/C(C)=C/C=C/C(C)=C/C(=O)Nc2ccc(O)cc2)C(C)(C)CCC1 [HPR, (2E,4E,6E,8E)-[3,7-dimethyl-9-(2,6,6-trimethylcyclohex-1-enyl)-nona-2,4,6,8-tetraenoylamino]-4-hydroxyphenylamide] | 94 | 85 | 63 | 28 | – | – | 1.4 | 0.6 | 25.3 | 9.1 | – | – | – | 6 to 8 | – | 2 | > 100 | 9 | affected very little | > 100
CCCC(=O)Oc1cc(O)ccc1NC(=O)/C=C(C)/C=C/C=C(C)/C=C/C1=C(C)CCCC1(C)C [KCBG10, 2.2-[(2E,4E,6E,8E)-3,7-Dimethyl-9-(2,6,6-trimethylcyclohex-1-enyl)-nona-2,4,6,8-tetraenoylamino]-5-hydroxyphenylbutanoate] | – | – | – | – | – | – | – | – | – | – | – | – | – | 3 | – | 0.5 | 4.5 | 6 | weakly | > 100

Source: patent US7166744B2, “Retinoid derivatives and methods for producing said compounds and anti-cancer pharmaceutical composition comprising said compounds” (Chebigen Co., Ltd., priority 2001, dated 2007)
